Results published in patent US20140093525A1, “COMPOSITIONS AND METHODS OF TREATING OPIOID ADDICTION” (Minneapolis Medical Research Foundation, priority 2012, published 2014).
Like-named read-outs stand apart in the source and are kept apart here. Where a SMILES comes first, the peptide text is derived from it. The star is where a group is joined. X1 = COc1ccc2c3c1OC1C(=NOCC(=O)*)CCC4(O)C(C2)N(C)CCC314

Legend:
Anti-OXY antibodies = test: Competitive ELISA of serum from animals immunized with OXY(Gly)4-KLH, OXY(Gly)4-OVA as coating antigen; assay type: binding, rat
Experimental: Because plateau values differed, IC50 values for each inhibitor were calculated based on the percentage of inhibition of the optical density of primary antibodies incubated with saline.

[1] = system: serum antibodies elicited by OXY-KLH; test: Competition ELISA of serum from rats vaccinated with OXY-KLH
[2] = system: serum antibodies elicited by M-KLH; test: Competition ELISA of serum from rats vaccinated with M-KLH
Male Holtzman rats [3] = test: Example 4: thermal nociception (hot plate) after OXY, naltrexone and OXY-KLH vaccine; assay type: in vivo, rat
Experimental: Male Holtzman rats immunized once every 3 weeks for a total of 3 injections i.p., with 25 μg immunogen in Freund's adjuvant.
Significant differences existed between saline pretreated control rats and rats receiving NLTX. For pharmacokinetic experiments NLTX dose of 0.003 mg/kg was chosen based on MPE %. *p<0.05.

Male Holtzman rats [4] = test: Example 4: drug distribution studies (OXY in serum and brain); assay type: in vivo, rat; settings: pre-treatment with 0.003 mg/kg NLTX; 2.25 mg/kg OXY s.c.
Experimental: Plasma and brain collected at 33 min after behavioral assessment on the hot plate, and measured using gas chromatography coupled to mass spectrometry.

[5] = relative to OXY, OXY(Gly)4-OVA as ELISA coating antigen

For `CCC(=O)C(CC(C)N(C)C)(c1ccccc1)c1ccccc1` (stereo not drawn) [Methadone], the “affinity, competition or binding to antibodies (in words)” value (“affinity, competition or binding” for short) (Anti-OXY antibodies) was “no measurable binding”.

`COc1ccc2c3c1OC1C(=NOCC(=O)NCC(=O)NCC(=O)NCC(=O)NCC(=O)O)CCC4(O)C(C2)N(C)CCC314` (stereo not drawn) [OXY(Gly)4] (X1-GGGG-OH) was tested, and the “Cross-Reactivity (%)” value (Anti-OXY antibodies) was >100%, the IC50 (Anti-OXY antibodies) was 3 nM and the “affinity, competition or binding” value (Anti-OXY antibodies) was “high affinities”.

tetraglycine [(Gly)4] was tested, and the “relative affinity of antiserum / cross-reactivity (in words)” value [1] was “negligible cross-reactivity”, the “affinity, competition or binding” value (Anti-OXY antibodies) was “no measurable competition or binding” and the “relative affinity of antiserum / cross-reactivity (in words)” value [2] was “negligible”.

For `C=CCN1CC[C@]23c4c5ccc(O)c4O[C@H]2C(=O)CC[C@@]3(O)[C@H]1C5` [Naloxone], the “affinity, competition or binding” value (Anti-OXY antibodies; competitive ELISA, serum from OXY(Gly)4-KLH immunized animals) was “substantially lower” and the “Cross-Reactivity (%)” value (Anti-OXY antibodies; [5]) was 1.2%.

For `CN1CC[C@]23c4c5ccc(O)c4O[C@H]2[C@@H](O)C=C[C@H]3[C@H]1C5` [Morphine], the “Cross-Reactivity (%)” value (Anti-OXY antibodies) was 0.1% and the “affinity, competition or binding” value (Anti-OXY antibodies) was “substantially lower”.

`COc1ccc2c3c1O[C@H]1C(=O)CC[C@H]4[C@@H](C2)N(C)CC[C@]314` [Hydrocodone] was tested, and the “relative affinity of antiserum / cross-reactivity (in words)” value [1] was “relatively low IC50 values”, the “Cross-Reactivity (%)” value (Anti-OXY antibodies) was 0.2% and the IC50 (Anti-OXY antibodies) was 10000 nM. The “affinity, competition or binding” value (Anti-OXY antibodies) was “substantially lower” and the “relative affinity of antiserum / cross-reactivity (in words)” value [2] was “relatively low IC50 values”.

For `O=C1CC[C@@]2(O)[C@H]3Cc4ccc(O)c5c4[C@@]2(CCN3CC2CC2)[C@H]1O5` [Naltrexone], the “effect on acute behavioral effects of OXY, thermal nociception (in words)” value (Male Holtzman rats [3]; NLTX 0.001-0.01 mg/kg s.c. 15 min prior to 2.25 mg/kg OXY) was “dose-dependently blocks”, the “effect on behavioral tolerance to OXY (in words)” value (Male Holtzman rats [3]; repeated OXY administration) was “unable to block the effects of tolerance” and the “affinity, competition or binding” value (Anti-OXY antibodies) was “substantially lower”. The IC50 (Anti-OXY antibodies; competitive binding, OXY(Gly)4-OVA as ELISA coating antigen) was 5000 nM, the “Cross-Reactivity (%)” value (Anti-OXY antibodies; [5]) was 0.4% and the “effect on distribution of OXY in immunized rats (in words)” value (Male Holtzman rats [4]) was “does not alter the distribution of OXY”.

`CC(=O)Oc1ccc2c3c1O[C@H]1[C@@H](OC(C)=O)C=C[C@H]4[C@@H](C2)N(C)CC[C@@]341` [heroin] was tested, and the “relative affinity of antiserum / cross-reactivity (in words)” value [1] was “low relative affinity” and the “relative affinity of antiserum / cross-reactivity (in words)” value [2] was “high relative affinities”.

`CN1CC[C@]23c4c5ccc(O)c4O[C@H]2C(=O)CC[C@@]3(O)[C@H]1C5` [Oxymorphone] was tested, and the “relative affinity of antiserum / cross-reactivity (in words)” value [1] was “high relative affinities”, the “Cross-Reactivity (%)” value (Anti-OXY antibodies) was 63% and the IC50 (Anti-OXY antibodies) was 30 nM.

In the case of `COc1ccc2c3c1O[C@H]1C(=O)CC[C@@]4(O)[C@@H](C2)N(C)CC[C@]314` [OXY, Oxycodone], the “Cross-Reactivity (%)” value (Anti-OXY antibodies) is reported as 100%, the IC50 (Anti-OXY antibodies) is reported as 17 nM and the “affinity, competition or binding” value (Anti-OXY antibodies) is reported as “high affinities”.
